Data reported in patent US12226480B2, “Combination drug including TLR7 agonist” (SUMITOMO PHARMA CO., LTD., priority 2017, dated 2025).

How the values were obtained:
effector memory T cell [1] = test: Ratio of effector memory T cell in CD8-positive tumor-infiltrating lymphocytes by FACS (anti-CTLA-4 study); assay type: in vivo, Balb/c mice; details: tumor on 26th day, CD8+ CD62L- CD127+, compared with the vehicle administration group, Compound 1 5 mg/kg iv, anti-CTLA-4 antibody 200 μg ip
Protocol: (§1) 1×10^6 Cells of murine colon cancer cell line CT26 (ATCC) were transplanted to the ventral flank of 40 female 6-week-old Balb/c mice. Seven days later, the mice were divided into four groups. In vehicle administration group, saline was intravenously administered once a week, and 200 μg of Rat IgG2a isotype control antibody (Bioxcell) was intraperitoneally administered twice a week. In Compound 1 administration group, Compound 1 was intravenously administered in a dose of 5 mg/kg once a week, and 200 μg of Rat IgG2a isotype control antibody (Bioxcell) was intraperitoneally administered twice a week. In anti-CTLA-4 antibody administration group, 200 μg of anti-CTLA-4 antibody (Bioxcell) was intraperitoneally administered twice a week. In combination group of Compound 1 and anti-CTLA-4 antibody, Compound 1 was intravenously administered in a dose of 5 mg/kg once a week, and 200 μg of anti-CTLA-4 antibody (Bioxcell) was intraperitoneally administered twice a week. After the transplantation of the tumor cell, the tumor was picked out on the 26th day, and a cell suspension of the tumor was prepared by using a tumor dissociation kit (Miltenyi) and a gentle macs dissociater (Miltenyi). […] The obtained cell suspension was stained with fluoresceinated anti-CD8, anti-CD62L, and anti-CD127 antibodies, and analyzed by flow cytometry (FACS) method. […]

effector memory T cell [2] = test: Ratio of effector memory T cell in CD8-positive tumor-infiltrating lymphocytes by FACS (anti-PD-1 study); assay type: in vivo, Balb/c mice; details: tumor on 23rd day, CD8+ CD62L- CD127+, compared with the vehicle administration group, Compound 1 5 mg/kg iv, anti-PD-1 antibody 200 μg ip
Protocol: as §1, with “48” for “40”, “Five” for “Seven”, “anti-PD-1” for “anti-CTLA-4”, “23rd” for “26th”, “dissociates” for “dissociater”

[3] = tested on: murine colon cancer cell line CT26; test: Antitumor activity of combination use of anti-PD-1 antibody and TLR7 agonist (tumor volume); assay type: in vivo; details: CT26 in Balb/c mice, until 23rd day; Compound 1 5 mg/kg iv once a week, anti-PD-1 antibody 200 μg ip twice a week; versus vehicle administration group
Protocol: 1×10^6 Cells of murine colon cancer cell line CT26 (ATCC) were transplanted to the ventral flank of 48 female 6-week-old Balb/c mice. Five days later, the mice were divided into four groups. In vehicle administration group, saline was intravenously administered once a week, and 200 μg of Rat IgG2a isotype control antibody (Bioxcell) was intraperitoneally administered twice a week. In TLR7 agonist administration group, a TLR7 agonist, N-{4-[(2-amino-4-{[(3S)-1-hydroxyhexan-3-yl]amino}-6-methylpyrimidin-5-yl)methyl]-3-methoxybenzyl}-N-(2,2,2-trifluoroethyl)glycine (hereinafter, referred to as “Compound 1”) was administered into a vein in a dose of 5 mg/kg once a week, and 200 μg of Rat IgG2a isotype control antibody (Bioxcell) was intraperitoneally administered twice a week. In anti-PD-1 antibody administration group, 200 μg of anti-PD-1 antibody (Bioxcell) was intraperitoneally administered twice a week. In combination group of Compound 1 and anti-PD-1 antibody, Compound 1 was intravenously administered in a dose of 5 mg/kg once a week, and 200 μg of anti-PD-1 antibody (Bioxcell) was intraperitoneally administered twice a week. After the transplantation of the tumor cell, the tumor volume was measured twice a week, and the body weight was checked once a week until the 23rd day. […]

[4] = tested on: murine colon cancer cell line CT26; test: Antitumor activity of combination use of anti-CTLA-4 antibody and TLR7 agonist (tumor volume); assay type: in vivo; details: CT26 in Balb/c mice, until 23rd day; Compound 1 5 mg/kg iv once a week, anti-CTLA-4 antibody 200 μg ip twice a week; versus vehicle administration group
Protocol: 1×10^6 Cells of murine colon cancer cell line CT26 (ATCC) were transplanted to the ventral flank of 40 female 7-week-old Balb/c mice. Seven days later, the mice were divided into four groups. In vehicle administration group, saline was intravenously administered once a week, and 200 μg of Rat IgG2a isotype control antibody (Bioxcell) was intraperitoneally administered twice a week. In TLR7 agonist administration group, Compound 1 was intravenously administered in a dose of 5 mg/kg once a week, and 200 μg of Rat IgG2a isotype control antibody (Bioxcell) was intraperitoneally administered twice a week. In anti-CTLA-antibody administration group, 200 μg of anti-CTLA-4 antibody (Bioxcell) was intraperitoneally administered twice a week. In combination group of Compound 1 and anti-CTLA-4 antibody, Compound 1 was intravenously administered in a dose of 5 mg/kg once a week, and 200 μg of anti-CTLA-4 antibody (Bioxcell) was intraperitoneally administered twice a week. After the transplantation of the tumor cell, the tumor volume was measured twice a week, and the body weight was checked once a week until the 23rd day. The tumor volume was obtained by measuring long axis and short axis of the tumor and calculating by a math formula of (short axis)×(short axis)×(long axis)×0.5.
The ordinate denotes tumor volume, and the abscissa denotes elapsed days from the transplantation of the tumor cell.

MHC class I (H-2Kd) = MHC class I (H-2Kd) on tumor by flow cytometry (anti-PD-1 study); assay type: in vivo, Balb/c mice; details: tumor on 23rd day, CD45-negative H-2Kd-positive fraction; Compound 1 5 mg/kg iv, anti-PD-1 antibody 200 μg ip
Protocol: 1×10^6 Cells of murine colon cancer cell line CT26 (ATCC) were transplanted to the ventral flank of 48 female 6-week-old Balb/c mice. Five days later, the mice were divided into four groups. In vehicle administration group, saline was intravenously administered once a week, and 200 μg of Rat IgG2a isotype control antibody (Bioxcell) was intraperitoneally administered twice a week. In Compound 1 administration group, Compound 1 was intravenously administered in a dose of 5 mg/kg once a week, and 200 μg of Rat IgG2a isotype control antibody (Bioxcell) was intraperitoneally administered twice a week. In anti-PD-1 antibody administration group, 200 μg of anti-PD-1 antibody (Bioxcell) was intraperitoneally administered twice a week. In combination group of Compound 1 and anti-PD-1 antibody, Compound 1 was intravenously administered in a dose of 5 mg/kg once a week, and 200 μg of anti-PD-1 antibody (Bioxcell) was intraperitoneally administered twice a week. After the transplantation of the tumor cell, the tumor was picked out on the 23rd day, and a cell suspension of the tumor was prepared by using a tumor dissociation kit (Miltenyi) and a gentle macs dissociater (Miltenyi). The cell suspension was stained with fluoresceinated anti-CD45 antibody and anti-H-2Kd antibody, and H-2Kd on the cancer cell was detected as CD45-negative and H-2Kd-positive fractions by flow cytometry method.

CCC[C@@H](CCO)Nc1nc(N)nc(C)c1Cc1ccc(CN(CC(=O)O)CC(F)(F)F)cc1OC [Compound 1, N-{4-[(2-amino-4-{[(3S)-1-hydroxyhexan-3-yl]amino}-6-methylpyrimidin-5-yl)methyl]-3-methoxybenzyl}-N-(2,2,2-trifluoroethyl)glycine]
ratio of effector memory T cell in CD8-positive cell (effector memory T cell [1]): did not increase
ratio of effector memory T cell in CD8-positive cell (effector memory T cell [2]): did not increase
tumor-volume variation / tumor growth inhibition [3]: tumor growth inhibition was observed
tumor-volume variation / tumor growth inhibition [4]: not so different from that of the vehicle administration group
mean fluorescent intensity (MFI) of H-2Kd (MHC class I (H-2Kd)): not so different from that of the vehicle administration group
